The target of one assay is T1, human AT1 receptor (Homo sapiens, UniProt P30556).
T1 construct: expressed in transfected cells; host or cells: CHO-K1
T1 sequence (P30556 1-359): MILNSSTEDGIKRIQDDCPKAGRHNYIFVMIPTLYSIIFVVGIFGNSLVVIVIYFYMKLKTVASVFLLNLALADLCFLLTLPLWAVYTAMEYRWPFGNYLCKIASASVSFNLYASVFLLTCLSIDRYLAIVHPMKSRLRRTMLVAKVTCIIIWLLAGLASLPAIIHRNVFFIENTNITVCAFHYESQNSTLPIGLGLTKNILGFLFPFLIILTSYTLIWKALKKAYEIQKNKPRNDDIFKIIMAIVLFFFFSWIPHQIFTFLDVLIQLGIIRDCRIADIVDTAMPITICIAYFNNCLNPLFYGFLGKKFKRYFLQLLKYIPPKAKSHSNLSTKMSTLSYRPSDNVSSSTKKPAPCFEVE
In words: Binding assay using human AT1 receptor-expressing CHO-K1 cell membrane fraction ([125I]-angiotensin II). Particulars: 22.5 pM [125I]-angiotensin II, 9 μg AT1 membrane, 1 hr room temperature; read-out: AT1 receptor binding inhibitory action (IC50 (nM)). The procedure, abridged: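 Radioligand displacement: test compound competed with [125I]-angiotensin II (22.5 pM) on stable CHO-K1 AT1 membrane fraction, 1 hr, room temperature, Tris pH 7.4/MgCl2 buffer ± 0.3 mg/mL BSA. Filtration then scintillation counting; 1 μM CV-11974 defined nonspecific binding. Values are IC50s.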

A further assay deals with T2, PPARγ (Homo sapiens, UniProt P37231).
T2 construct: expressed in transfected cells; host or cells: CHO-K1
T2 sequence (P37231 1-477 isoform P37231-2): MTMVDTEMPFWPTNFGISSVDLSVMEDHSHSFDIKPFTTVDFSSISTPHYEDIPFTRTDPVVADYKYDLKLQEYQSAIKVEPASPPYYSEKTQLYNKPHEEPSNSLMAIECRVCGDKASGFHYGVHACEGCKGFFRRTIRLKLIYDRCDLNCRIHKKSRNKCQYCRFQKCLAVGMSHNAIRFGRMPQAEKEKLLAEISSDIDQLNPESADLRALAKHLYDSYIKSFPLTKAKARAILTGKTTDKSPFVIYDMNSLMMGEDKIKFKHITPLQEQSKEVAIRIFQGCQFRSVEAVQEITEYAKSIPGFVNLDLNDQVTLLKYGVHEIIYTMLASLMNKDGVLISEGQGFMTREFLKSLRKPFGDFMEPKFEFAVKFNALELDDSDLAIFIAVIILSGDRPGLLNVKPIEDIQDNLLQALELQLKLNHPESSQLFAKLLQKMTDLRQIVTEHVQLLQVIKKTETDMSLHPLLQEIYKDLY
T2 sequence (P19793 1-462 partner): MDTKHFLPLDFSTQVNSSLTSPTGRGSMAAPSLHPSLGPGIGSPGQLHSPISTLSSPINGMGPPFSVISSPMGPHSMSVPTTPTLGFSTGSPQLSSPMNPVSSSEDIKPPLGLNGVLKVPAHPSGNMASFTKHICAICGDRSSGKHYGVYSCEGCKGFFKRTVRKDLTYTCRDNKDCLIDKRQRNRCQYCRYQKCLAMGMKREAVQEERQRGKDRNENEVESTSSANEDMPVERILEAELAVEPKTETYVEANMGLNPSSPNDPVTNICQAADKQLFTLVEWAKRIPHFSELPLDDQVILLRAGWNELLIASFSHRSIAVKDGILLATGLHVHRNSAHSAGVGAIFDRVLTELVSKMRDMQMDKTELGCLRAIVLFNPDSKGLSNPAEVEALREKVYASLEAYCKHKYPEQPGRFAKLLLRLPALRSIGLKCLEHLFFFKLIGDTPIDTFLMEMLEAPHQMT
In words: Evaluation of PPARγ activating action (luciferase reporter in PPARγ:RXRα:4ERPP/CHO-K1 cells). In kind it is cell-based. Particulars: CHO-K1, 24 h; test compound 10^−6 M; luciferase activity relative to control compound X (1 μM) = 100%, non-administration group = 0%; read-out: PPARγ activating action (activation % (10^−6 M)). The procedure, abridged: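 Activity is expressed as percent, where vehicle gives 0% and 1 μM compound X gives 100%, based on luciferase luminescence. Reporter CHO-K1 cells co-expressing PPARγ:RXRα with a 4ERPP-driven luciferase were incubated with test compound for one day at 37 °C in medium with 0.1% fatty acid-free BSA.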

As for `CCCc1nc(C)n(-c2ccc3c(c2)C(=O)CC(C)(C)O3)c(=O)c1Cc1ccc(-c2ccccc2-c2noc(=O)[nH]2)cc1` [Example 145, 3-(2,2-dimethyl-4-oxo-3,4-dihydro-2H-chromen-6-yl)-2-methyl-5-{[2′-(5-oxo-4,5-dihydro-1,2,4-oxadiazol-3-yl)biphenyl-4-yl]methyl}-6-propylpyrimidin-4(3H)-one], at human AT1 receptor, the half-maximal inhibitory concentration (IC50) stood at 1.8 nM. For the same compound, the activation at 1 µM on PPARγ turned out to be 36.5%.

`CCCCc1nc(C)n(Cc2noc(-c3ccccc3)n2)c(=O)c1Cc1ccc(-c2ccccc2-c2noc(=O)[nH]2)cc1` [Example 152, 6-butyl-2-methyl-5-{[2′-(5-oxo-4,5-dihydro-1,2,4-oxadiazol-3-yl)biphenyl-4-yl]methyl}-3-[(5-phenyl-1,2,4-oxadiazol-3-yl)methyl]pyrimidin-4(3H)-one]: the 50% inhibitory concentration (IC50) on human AT1 receptor was 2.1 nM. On PPARγ, the activation at 1 µM came to 64.8%.

As to `CCCCc1nc(C)n(CC2CCCCO2)c(=O)c1Cc1ccc(-c2ccccc2-c2noc(=O)[nH]2)cc1` (stereo not shown) [Example 160, 6-butyl-2-methyl-5-{[2′-(5-oxo-4,5-dihydro-1,2,4-oxadiazol-3-yl)biphenyl-4-yl]methyl}-3-(tetrahydro-2H-pyran-2-ylmethyl)pyrimidin-4(3H)-one], the half-inhibitory concentration (IC50) at human AT1 receptor came to 1.8 nM. Further, the activation at 1 µM at PPARγ is 61.6%.

As to `CCCCc1nc(C)n(Cc2c(F)cccc2F)c(=O)c1Cc1ccc(-c2ccccc2-c2noc(=O)[nH]2)cc1` [Example 165, 6-butyl-3-(2,6-difluorobenzyl)-2-methyl-5-{[2′-(5-oxo-4,5-dihydro-1,2,4-oxadiazol-3-yl)biphenyl-4-yl]methyl}pyrimidin-4(3H)-one], at human AT1 receptor, the IC50 amounted to 1.7 nM. Also, the activation at 1 µM at PPARγ turned out to be 59%.

With `CCCc1ncn(-c2ccc3c(c2)CC(C)(C)O3)c(=O)c1Cc1ccc(-c2ccccc2-c2noc(=O)[nH]2)cc1` [Example 178, 3-(2,2-dimethyl-2,3-dihydro-1-benzofuran-5-yl)-5-{[2′-(5-oxo-4,5-dihydro-1,2,4-oxadiazol-3-yl)biphenyl-4-yl]methyl}-6-propylpyrimidin-4(3H)-one], the IC50 on human AT1 receptor was 2.6 nM. For the same compound, on PPARγ, the activation at 1 µM was 37.5%.

Turning to `CCCCc1nc(C)n(-c2ccc(C)c(C)c2)c(=O)c1Cc1ccc(-c2ccccc2-c2noc(=O)[nH]2)cc1` [Example 202, 6-butyl-3-(3,4-dimethylphenyl)-2-methyl-5-{[2′-(5-oxo-4,5-dihydro-1,2,4-oxadiazol-3-yl)biphenyl-4-yl]methyl}pyrimidin-4(3H)-one], at human AT1 receptor, the IC50 came out at 1.5 nM. For the same compound, the activation at 1 µM at PPARγ came to 25.3%.

As to `CCCCc1nc(C)n(-c2ccccc2)c(=O)c1Cc1c(F)cc(-c2ccccc2-c2noc(=O)[nH]2)cc1F` [Example 204, 6-butyl-5-{[3,5-difluoro-2′-(5-oxo-4,5-dihydro-1,2,4-oxadiazol-3-yl)biphenyl-4-yl]methyl}-2-methyl-3-phenylpyrimidin-4(3H)-one], the IC50 on human AT1 receptor worked out at 1.6 nM. Also, at PPARγ, the activation at 1 µM was determined as 27.4%.

Take `CCCCc1nc(C)n(-c2ccoc2)c(=O)c1Cc1ccc(-c2ccccc2-c2noc(=O)[nH]2)cc1` [Example 206, 6-butyl-3-(3-furyl)-2-methyl-5-{[2′-(5-oxo-4,5-dihydro-1,2,4-oxadiazol-3-yl)biphenyl-4-yl]methyl}pyrimidin-4(3H)-one]: the IC50 at human AT1 receptor came out at 2 nM. Besides, the activation at 1 µM at PPARγ was found to be 21.8%.

For `CCCCc1nc(C)n(-c2cccc(C(C)(C)O)c2)c(=O)c1Cc1ccc(-c2ccccc2-c2noc(=O)[nH]2)cc1` [Example 217, 6-butyl-3-[3-(1-hydroxy-1-methylethyl)phenyl]-2-methyl-5-{[2′-(5-oxo-4,5-dihydro-1,2,4-oxadiazol-3-yl)biphenyl-4-yl]methyl}pyrimidin-4(3H)-one], the 50% inhibitory concentration (IC50) at human AT1 receptor was 1.1 nM. For the same compound, on PPARγ, the activation at 1 µM turned out to be 26.8%.

Regarding `CCCCc1nc(C)n(-c2ccc(OCC)cc2)c(=O)c1Cc1ccc(-c2ccccc2-c2noc(=O)[nH]2)cc1` [Example 222, 6-butyl-3-(4-ethoxyphenyl)-2-methyl-5-{[2′-(5-oxo-4,5-dihydro-1,2,4-oxadiazol-3-yl)biphenyl-4-yl]methyl}pyrimidin-4(3H)-one], the IC50 on human AT1 receptor worked out at 1.3 nM. The activation at 1 µM on PPARγ is 29.3%.

With `CCCCc1nc(C)n(-c2ccc3c(c2)CC(C)(C)O3)c(=O)c1Cc1ccc(-c2ccccc2-c2noc(O)n2)cc1` [Example 234, 6-butyl-3-(2,2-dimethyl-2,3-dihydro-1-benzofuran-5-yl)-2-methyl-5-{[2′-(5-oxo-4,5-dihydro-1,2,4-oxadiazol-3-yl)biphenyl-4-yl]methyl}pyrimidin-4(3H)-one], the IC50 at human AT1 receptor is 1.2 nM. Moreover, the activation at 1 µM on PPARγ came to 33.9%.

On to `CCCc1nc(C)n(-c2ccc3c(c2)CC(C)O3)c(=O)c1Cc1ccc(-c2ccccc2-c2noc(=O)[nH]2)cc1` (stereo not shown) [Example 235, 2-methyl-3-(2-methyl-2,3-dihydro-1-benzofuran-5-yl)-5-{[2′-(5-oxo-4,5-dihydro-1,2,4-oxadiazol-3-yl)biphenyl-4-yl]methyl}-6-propylpyrimidin-4(3H)-one], for which the IC50 on human AT1 receptor turned out to be 1.5 nM. Further, at PPARγ, the activation at 1 µM came out at 27.6%.

As for `CCCc1nc(C)n(-c2ccc3c(c2)CC(C)(C)O3)c(=O)c1Cc1ccc(-c2ccccc2-c2noc(=O)[nH]2)cc1` [Example 239, 3-(2,2-dimethyl-2,3-dihydro-1-benzofuran-5-yl)-2-methyl-5-{[2′-(5-oxo-4,5-dihydro-1,2,4-oxadiazol-3-yl)biphenyl-4-yl]methyl}-6-propylpyrimidin-4(3H)-one], the IC50 at human AT1 receptor came out at 1.8 nM. Also, the activation at 1 µM at PPARγ turned out to be 31.6%.

On to `CCCOc1ccc(-n2c(C)nc(CCC)c(Cc3ccc(-c4ccccc4-c4noc(=O)[nH]4)cc3)c2=O)cc1` [Example 249, 2-methyl-5-{[2′-(5-oxo-4,5-dihydro-1,2,4-oxadiazol-3-yl)biphenyl-4-yl]methyl}-3-(4-propoxyphenyl)-6-propylpyrimidin-4(3H)-one], for which the IC50 on human AT1 receptor stood at 1.6 nM. For the same compound, the activation at 1 µM at PPARγ was 30.5%.

Consider `CCCc1nc(C)n(-c2ccc(OC3CCC3)cc2)c(=O)c1Cc1ccc(-c2ccccc2-c2noc(=O)[nH]2)cc1` [Example 255, 3-[4-(cyclobutyloxy)phenyl]-2-methyl-5-{[2′-(5-oxo-4,5-dihydro-1,2,4-oxadiazol-3-yl)biphenyl-4-yl]methyl}-6-propylpyrimidin-4(3H)-one], for which the IC50 on human AT1 receptor was determined as 1.7 nM. Moreover, on PPARγ, the activation at 1 µM worked out at 30.5%.

For `CCCc1nc(C)n(-c2ccc(OC(CC)CC)cc2)c(=O)c1Cc1ccc(-c2ccccc2-c2noc(=O)[nH]2)cc1` [Example 256, 3-[4-(1-ethylpropoxy)phenyl]-2-methyl-5-{[2′-(5-oxo-4,5-dihydro-1,2,4-oxadiazol-3-yl)biphenyl-4-yl]methyl}-6-propylpyrimidin-4(3H)-one], the half-maximal inhibitory concentration (IC50) on human AT1 receptor is 2 nM. Moreover, at PPARγ, the activation at 1 µM worked out at 45.7%.

Consider `CCCc1nc(C)n(-c2ccc(OC3CC3)cc2)c(=O)c1Cc1ccc(-c2ccccc2-c2noc(=O)[nH]2)cc1` [Example 265, 3-[4-(cyclopropyloxy)phenyl]-2-methyl-5-{[2′-(5-oxo-4,5-dihydro-1,2,4-oxadiazol-3-yl)biphenyl-4-yl]methyl}-6-propylpyrimidin-4(3H)-one], for which the IC50 on human AT1 receptor was 1.7 nM. For the same compound, at PPARγ, the activation at 1 µM is 27.8%.

Source of the values: US20100056526A1, “HETEROMONOCYCLIC COMPOUND AND USE THEREOF” (Takeda Pharmaceutical Company Limited, priority 2006, published 2010).
